{"source": "patent US4677110A", "about": "“N-benzoyl-N'-pyrimidinyloxyphenyl urea compounds, and antitumorous compositions containing them” (Ishihara Sangyo Kaisha Ltd., priority 1984, dated 1987)", "key": {"p-388 leukemia cells [1]": {"system": "p-388 leukemia cells", "assay": "Test Example 1: antitumour activity, intraperitoneal-intraperitoneal, p-388 leukemia in BDF1 mice", "assay_type": "in vivo", "conditions": "i.p., one day and four days after i.p. inoculation, 30 days observation", "procedure": "(Intraperitoneal-intraperitoneal) To BDF1 mice, p-388 leukemia cells were intraperitoneally inoculated in an amount of 1×10^6 cells/mouse. A test drug was intraperitoneally administered twice, i.e. one day and four days after the inoculation. […] The ratio (%) of median survival time of test and control animals was obtained with the number of survival days of mice of the control group to which a physiological saline was administered, being evaluated as 100. The comparative drugs were dispersions obtained by adding small amounts of surfactants (e.g. Tween-80) to the comparative compounds. The drugs of the present invention were those prepared in accordance with Formulation Example 4 given hereinafter. | Note: MST^1 Ratio of median survival time of test and control animals"}, "ddY mice": {"system": "ddY mice", "assay": "Acute toxicity, oral administration", "assay_type": "in vivo", "conditions": "12.5 mg/kg oral, ddY mice (10 animals), Formulation Example 4", "procedure": "(§1) To ddY mice (10 animals), a drug containing the Compound No. 1 or No. 2 of the present invention formulated in accordance with Formulation Example 4 was orally administered in an amount of the compound of 12.5 mg/kg, whereupon no mice died."}, "[2]": {"assay": "Acute toxicity, oral administration", "assay_type": "in vivo", "conditions": "mouse, in vivo; oral, ddY mice, Formulation Example 4", "procedure": "as §1"}, "p-388 leukemia cells [3]": {"system": "p-388 leukemia cells", "assay": "Test Example 2: antitumour activity, intraperitoneal-oral, p-388 leukemia in BDF1 mice", "assay_type": "in vivo", "conditions": "one day and four days after i.p. inoculation, 30 days observation", "excerpt": "(intraperitoneal-oral) To BDF1 mice, p-388 leukemia cells were intraperitoneally inoculated in an amount of 1×10^6 cells/mouse. A test drug was orally administered twice i.e. one day and four days after the inoculation. […] The test drugs and comparative drugs were formulated in accordance with Formulation Example 4 given hereinafter. | Notes: MST^1 is as defined above."}, "[4]": {"assay": "Acute toxicity, intraperitoneal administration", "conditions": "mouse, in vivo, ip, ddY mice, suspension with Tween-80", "procedure": "as §1\nOn the other hand, a similar test was conducted by intraperitoneally administering a suspension obtained by adding a small amount of a surfactant (Tween-80) to the Compound No. 3 of the present invention, to the same mice, whereby the LD50 values were from 50 to 100 mg/kg."}}, "data": [{"smiles": "O=C(NC(=O)c1ccccc1Cl)Nc1ccc(Oc2ncc(I)cn2)c(Cl)c1", "note": "[Comparative Compound No. 3, N-(2-chlorobenzoyl)-N'-[3-chloro-4-(5-iodo-2-pyrimidinyloxy)phenyl]urea]", "values": [{"measurement": "T/C (%) of MST (ratio of median survival time of test and control animals)", "setting": "p-388 leukemia cells [1]; 100 mg/kg/day", "result": 236.8, "unit": "%"}]}, {"smiles": "O=C(NC(=O)c1ccccc1[N+](=O)[O-])Nc1ccc(Oc2ncc(Br)cn2)c(C(F)(F)F)c1", "note": "[Compound No. 1, N-(N2-nitrobenzoyl)-N'-[4-(5-bromo-2-pyrimidinyloxy)-3-trifluoromethylphenyl]urea]", "values": [{"measurement": "T/C (%) of MST (ratio of median survival time of test and control animals)", "setting": "p-388 leukemia cells [1]; 3.125 mg/kg/day", "result": 153, "unit": "%"}, {"measurement": "mortality", "setting": "ddY mice", "result": "no mice died"}, {"measurement": "LD50", "setting": "[2]", "result": "≥ 12.5", "unit": "mg/kg"}, {"measurement": "T/C (%) of MST (ratio of median survival time of test and control animals)", "setting": "p-388 leukemia cells [3]; 6.25 mg/kg/day", "result": 186, "unit": "%"}]}, {"smiles": "O=C(NC(=O)c1ccccc1[N+](=O)[O-])Nc1ccc(Oc2ncc(Cl)cn2)c(C(F)(F)F)c1", "note": "[Compound No. 2, N-(2-nitrobenzoyl)-N'-[4-(5-chloro2-pyrimidinyloxy)-3-trifluoromethylphenyl]urea]", "values": [{"measurement": "T/C (%) of MST (ratio of median survival time of test and control animals)", "setting": "p-388 leukemia cells [1]; 3.125 mg/kg/day", "result": 160, "unit": "%"}, {"measurement": "mortality", "setting": "ddY mice", "result": "no mice died"}, {"measurement": "LD50", "setting": "[2]", "result": "≥ 12.5", "unit": "mg/kg"}, {"measurement": "T/C (%) of MST (ratio of median survival time of test and control animals)", "setting": "p-388 leukemia cells [3]; 6.25 mg/kg/day", "result": 167, "unit": "%"}]}, {"smiles": "O=C(NC(=O)c1ccccc1[N+](=O)[O-])Nc1ccc(Oc2ncc(I)cn2)c(Cl)c1", "note": "[Comparative Compound No. 1, N-(2 nitrobenzoyl)-N'-[3-chloro-4-(5-iodo-2-pyrimidinyloxy)phenyl]urea]", "values": [{"measurement": "T/C (%) of MST (ratio of median survival time of test and control animals)", "setting": "p-388 leukemia cells [1]; 12.5 mg/kg/day", "result": 171, "unit": "%"}, {"measurement": "T/C (%) of MST (ratio of median survival time of test and control animals)", "setting": "p-388 leukemia cells [1]; 25 mg/kg/day", "result": 230, "unit": "%"}, {"measurement": "T/C (%) of MST (ratio of median survival time of test and control animals)", "setting": "p-388 leukemia cells [3]; 400 mg/kg/day", "result": 116, "unit": "%"}, {"measurement": "T/C (%) of MST (ratio of median survival time of test and control animals)", "setting": "p-388 leukemia cells [3]; 800 mg/kg/day", "result": 143, "unit": "%"}, {"measurement": "T/C (%) of MST (ratio of median survival time of test and control animals)", "setting": "p-388 leukemia cells [3]; 1600 mg/kg/day", "result": 186, "unit": "%"}]}, {"smiles": "O=C(NC(=O)c1ccccc1Br)Nc1ccc(Oc2ncc(I)cn2)c(Cl)c1", "note": "[Comparative Compound No. 4, N-(2-bromobenzoyl)-N'-[3-chloro-4-(5-iodo-2-pyrimidinyloxy)phenyl]urea]", "values": [{"measurement": "T/C (%) of MST (ratio of median survival time of test and control animals)", "setting": "p-388 leukemia cells [1]; 100 mg/kg/day", "result": 165, "unit": "%"}]}, {"smiles": "O=C(NC(=O)c1ccccc1[N+](=O)[O-])Nc1ccc(Oc2ncc(I)cn2)c(C(F)(F)F)c1", "note": "[Compound No. 3, N-(2-nitrobenzoyl)-N'-[4-(5-iodo-2-pyrimidinyloxy)-3-trifluoromethylphenyl]urea]", "values": [{"measurement": "LD50", "setting": "[4]", "result": "50 to 100", "unit": "mg/kg"}]}, {"smiles": "O=C(NC(=O)c1ccccc1Cl)Nc1ccc(Oc2ncc(Cl)cn2)c(Cl)c1", "note": "[Comparative Compound No. 2, N-(2-chlorobenzoyl)-N'-[3-chloro-4-(5-chloro-2-pyrimidinyloxy)phenyl]urea]", "values": [{"measurement": "T/C (%) of MST (ratio of median survival time of test and control animals)", "setting": "p-388 leukemia cells [1]; 200 mg/kg/day", "result": 183.9, "unit": "%"}]}]}
